From patent publication US11447487B2, “Spiroheptanyl hydantoins as rock inhibitors” (BRISTOL-MYERS SQUIBB COMPANY, priority 2017, dated 2022)

target: ROCK2 (Homo sapiens (Human), UniProt O75116); test: ROCK assay (Caliper LABCHIP peptide phosphorylation); assay type: biochemical; conditions: 5 μM ATP, 1.5 μM peptide substrate
Protocol: The effectiveness of compounds of the present invention as ROCK inhibitors can be determined in a 30 μL assay containing 20 mM HEPES, pH 7.5, 20 mM MgCl2, 0.015% Brij-35, 4 mM DTT, 5 μM ATP and 1.5 μM peptide substrate (FITC-AHA-AKRRRLSSLRA-OH) (SEQ ID No. 1). Compounds were dissolved in DMSO so that the final concentration of DMSO was <2%, and the reaction was initiated with Rho kinase variants. After incubation, the reaction was terminated by the addition of EDTA and the phosphorylated and non-phosphorylated peptides separated using a LABCHIP® 3000 Reader (Caliper Life Sciences). […] Compounds were tested in dose-response format, and the inhibition of kinase activity was calculated at each concentration of compound. The inhibition data were fit using a curve-fitting program to determine the IC50; i.e., the concentration of compound required to inhibit 50% of kinase activity. Representative Examples were tested in the ROCK assay described above and found having ROCK inhibitory activity. A range of ROCK inhibitory activity (IC50 values) of ≤50 μM (50000 nM) was observed. Table A below lists the ROCK IC50 values measured for the following examples.

Sequence of ROCK2 (O75116 whole entry, species assumed): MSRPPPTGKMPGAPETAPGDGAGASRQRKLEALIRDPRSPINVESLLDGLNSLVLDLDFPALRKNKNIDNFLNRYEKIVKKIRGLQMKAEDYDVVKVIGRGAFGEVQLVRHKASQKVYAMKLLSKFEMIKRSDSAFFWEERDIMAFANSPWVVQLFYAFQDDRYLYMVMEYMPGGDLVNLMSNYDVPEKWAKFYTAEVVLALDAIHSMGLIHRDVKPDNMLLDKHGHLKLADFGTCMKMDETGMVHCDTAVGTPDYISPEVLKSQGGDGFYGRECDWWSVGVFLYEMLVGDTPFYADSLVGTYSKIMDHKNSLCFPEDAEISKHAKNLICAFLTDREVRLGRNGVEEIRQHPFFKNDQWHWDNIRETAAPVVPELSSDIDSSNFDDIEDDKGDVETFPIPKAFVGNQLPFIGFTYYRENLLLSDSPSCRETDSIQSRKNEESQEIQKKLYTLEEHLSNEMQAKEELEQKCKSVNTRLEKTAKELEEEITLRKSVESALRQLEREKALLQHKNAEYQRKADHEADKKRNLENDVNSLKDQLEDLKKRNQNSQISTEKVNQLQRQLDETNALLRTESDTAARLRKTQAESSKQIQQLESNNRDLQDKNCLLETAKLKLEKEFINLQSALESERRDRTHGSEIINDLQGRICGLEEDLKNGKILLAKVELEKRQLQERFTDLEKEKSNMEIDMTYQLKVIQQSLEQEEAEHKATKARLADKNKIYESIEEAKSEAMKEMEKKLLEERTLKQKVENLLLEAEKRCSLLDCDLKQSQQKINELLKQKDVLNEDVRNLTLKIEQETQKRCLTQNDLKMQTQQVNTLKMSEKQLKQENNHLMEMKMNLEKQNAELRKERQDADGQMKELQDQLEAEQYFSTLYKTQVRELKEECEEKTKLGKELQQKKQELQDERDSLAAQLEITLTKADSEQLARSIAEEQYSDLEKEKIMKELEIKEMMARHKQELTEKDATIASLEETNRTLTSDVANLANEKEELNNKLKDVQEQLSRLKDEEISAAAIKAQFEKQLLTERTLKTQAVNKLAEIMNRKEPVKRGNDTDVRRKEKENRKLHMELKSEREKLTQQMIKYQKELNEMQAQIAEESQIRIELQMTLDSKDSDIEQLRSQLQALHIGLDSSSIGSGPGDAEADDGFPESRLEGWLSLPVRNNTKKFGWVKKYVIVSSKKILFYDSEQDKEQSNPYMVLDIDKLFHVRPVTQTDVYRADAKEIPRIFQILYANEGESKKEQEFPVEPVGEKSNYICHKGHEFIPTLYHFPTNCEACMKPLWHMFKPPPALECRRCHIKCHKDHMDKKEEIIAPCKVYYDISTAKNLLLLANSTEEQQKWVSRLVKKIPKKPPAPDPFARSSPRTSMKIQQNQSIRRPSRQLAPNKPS

Compound | IC50 [nM]
NC(=O)c1cccnc1O[C@H]1C[C@]2(C1)C[C@H](N1C(=O)NC(CC3CCCCC3)C1=O)C2 (single isomer, unassigned) [Example 6, 2-{[(αR)-6-(4-cyclohexylmethyl-2,5-dioxoimidazol-idin-1-yl)spiro-[3.3]heptan-2-yl]-oxy}pyridine-3-carboxamide] | 91
NC(=O)c1cccnc1O[C@H]1C[C@]2(C1)C[C@H](N1C(=O)NC(CCc3ccccc3)C1=O)C2 (single isomer, unassigned) [Example 12, 2-{[(αR)-6-(4-(2-phenylethyl)-2,5-dioxoimidazol-idin-1-yl)spiro-[3.3]heptan-2-yl]oxy}pyridine-3-carboxamide] | 270
CC(C)(C)OC(=O)NCCC1NC(=O)N([C@H]2C[C@@]3(C[C@H](Oc4ncccc4C(N)=O)C3)C2)C1=O (single isomer, unassigned) [Example 20, tert-butyl N-(2-{2,5-dioxo-1-[(αR)-6-[(3-carbamoylpyridin-2-yl)oxy]spiro-[3.3]heptan-2-yl]-imidazolidin-4-yl}ethyl)carbamate] | 1710
CC(C)(C)OC(=O)NCCC1NC(=O)N([C@H]2C[C@@]3(C[C@H](Oc4ncccc4C(N)=O)C3)C2)C1=O (single isomer, unassigned) [Example 21, tert-butyl N-(2-{2,5-dioxo-1-[(αR)-6-[(3-carbamoylpyridin-2-yl)oxy]spiro-[3.3]heptan-2-yl]-imidazolidin-4-yl}ethyl)carbamate] | 2380
NC(=O)c1cccnc1O[C@H]1C[C@]2(C1)C[C@H](N1C(=O)NC(CC(C(F)(F)F)C(F)(F)F)C1=O)C2 (single isomer, unassigned) [Example 47] | 50

Now those with a lower IC50, led by results:

IC50 [nM] | Compound
25 | NC(=O)c1cccnc1O[C@H]1C[C@]2(C1)C[C@H](N1C(=O)NC(CCc3ccccc3)C1=O)C2 (single isomer, unassigned) [Example 5, 2-{[(αR)-6-[2,5-dioxo-4-(2-phenylethyl)-imidazolidin-1-yl]spiro[3.3]-heptan-2-yl]oxy}-pyridine-3-carboxamide]
23 | NC(=O)c1cccnc1O[C@H]1C[C@]2(C1)C[C@H](N1C(=O)NC(CCC3CCCCCC3)C1=O)C2 (single isomer, unassigned) [Example 43, 2-{[(αR)-6-[4-(2-cycloheptylethyl)-2,5-dioxoimidazol-idin-1-yl]spiro-[3.3]heptan-2-yl]-oxy}pyridine-3-carboxamide]
22 | NC(=O)c1cccnc1O[C@H]1C[C@]2(C1)C[C@H](N1C(=O)NC(CCCC(F)(F)F)C1=O)C2 (single isomer, unassigned) [Example 42, 2-{[(αR)-6-[2,5-dioxo-4-(4,4,4-trifluorobutyl)-imidazolidin-1-yl]-spiro[3.3]heptan-2-yl]oxy}pyridine-3-carboxamide]
17 | 2-((((R)-6-(4-((1-adamantyl)methyl)-2,5-dioxoimidazolidin-1-yl)spiro[3.3]heptan-2-yl)oxy)nicotinamide [Example 68]
14 | NC(=O)c1cccnc1O[C@H]1C[C@]2(C1)C[C@H](N1C(=O)NC(CC3CCCC3)C1=O)C2 (single isomer, unassigned) [Example 40, 2-{[(αR)-6-[4-(cyclopentyl-methyl)-2,5-dioxo-imidazolidin-1-yl]-spiro[3.3]heptan-2-yl]oxy}pyridine-3-carboxamide]
8 | NC(=O)c1cccnc1O[C@H]1C[C@]2(C1)C[C@H](N1C(=O)NC(CC3CCCCC3)C1=O)C2 (single isomer, unassigned) [Example 2, 2-{[(αR)-6-[4-(cyclohexyl-methyl)-2,5-dioxoimidazol-idin-1-yl]spiro-[3.3]heptan-2-yl]-oxy}pyridine-3-carboxamide]
5 | CCC(CC)CC1NC(=O)N([C@H]2C[C@@]3(C[C@H](Oc4ncccc4C(N)=O)C3)C2)C1=O (single isomer, unassigned) [Example 38, 2-{[(αR)-6-(4-(2-ethylbutyl)-2,5-dioxoimidazolidin-1-yl]spiro[3.3]-heptan-2-yl]oxy}-pyridine-3-carbox-amide]
